Results as given in paper PMC5635026, “Homo-PROTACs: bivalent small-molecule dimerizers of the VHL E3 ubiquitin ligase to induce self-degradation” (Nature Communications, 2017).

Legend:
HIF-1α = test: TMT MS proteomics in HeLa cells, HIF-1α level; format: cell-based, Human; details: 1 µM, 10 h
Procedure: MS proteomics. Sample preparation. HeLa cells were seeded at 5 × 10^6 on a 10 cm plate 16 h before treatment. […] Cells were incubated at 37 °C and 5% CO2 for 10 h before harvesting. Cells were placed on ice and medium was removed and cells were washed twice with cold PBS. Cells were lysed in 0.5 ml of 100 mM Tris pH 8.0, 4% (w/v) SDS supplemented with protease inhibitor cocktail (Roche). The lysate was pulse sonicated briefly and then centrifuged at 17,000 × g for 15 min at 4 °C. The supernatant fraction of cell extract was snap-frozen in liquid nitrogen and stored in −80 °C freezer. Further sample processing, digestion, desalting, labeling and fractionation were performed as previously described.
nLC-MS/MS analysis. The TMT 10plex fractions were first analyzed as previously described. Briefly, the TMT 10plex fractions were analyzed sequentially on a Q Exactive HF Hybrid Quadrupole-Orbitrap Mass Spectrometer (Thermo Scientific) coupled to an UltiMate 3000 RSLCnano UHPLC system (Thermo Scientific) and EasySpray column (75 μm × 50 cm, PepMap RSLC C18 column, 2 μm, 100 Å, Thermo Scientific). The MS2 isolation window was set to 0.4 Da and the resolution set at 120,000. MS2 resolution was set at 60,000. […] After the first analysis, the TMT labeled fractions were re-analyzed on the Q-Exactive HF using the same instrument settings and a target list generated from a theoretical trypsin digest of VHL. […]

[1] = tested on: Hypoxia response element (HRE)-luciferase reporter HeLa-HRE cells; test: HRE-luciferase reporter assay in HeLa-HRE cells; format: cell-based, Human; details: different concentrations and times
Procedure: (§1) Luciferase assay. Assay was performed as described. Briefly, cells (HeLa and U2OS) stably expressing an HRE-luciferase reporter were treated for the indicated times with compounds. Cells were harvested in passive lysis buffer (Promega) and subjected to three freeze-thaw cycles. The soluble lysate fraction was used for assays, performed according to the manufacturer’s instructions (Promega) using a Berthold Lumat LB 9507 Luminometer. Results were normalized for protein concentration, and reported as mean ± s.e.m. from three biological replicates.

[2] = tested on: Hypoxia response element (HRE)-luciferase reporter U2OS-HRE cells; test: HRE-luciferase reporter assay in U2OS-HRE cells; format: cell-based, Human; details: different concentrations and times
Procedure: as §1

V30CB = biological target: T1, V30CB (Homo sapiens, UniProt P40337); test: Size-exclusion chromatography (SEC) of complex formation with V30CB; format: binding
T1 construct: N-terminally His6-tagged VHL (1–213), ElonginC (17–112) and ElonginB (1–104) were co-expressed; His6 (N, cleaved yes); made in house; host or cells: Escherichia coli BL21(DE3)
T1 sequence (P40337 whole entry): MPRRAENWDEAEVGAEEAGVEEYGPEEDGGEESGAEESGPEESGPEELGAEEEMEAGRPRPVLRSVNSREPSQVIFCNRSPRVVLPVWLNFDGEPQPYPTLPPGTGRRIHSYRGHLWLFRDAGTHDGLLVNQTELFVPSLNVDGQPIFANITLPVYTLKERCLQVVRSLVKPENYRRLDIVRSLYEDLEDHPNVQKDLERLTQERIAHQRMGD
T1 sequence (Q15369 17-112 partner limits assumed): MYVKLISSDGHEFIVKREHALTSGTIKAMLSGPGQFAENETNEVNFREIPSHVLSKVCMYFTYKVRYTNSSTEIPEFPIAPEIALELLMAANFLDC
T1 sequence (Q15370 1-104 partner limits assumed): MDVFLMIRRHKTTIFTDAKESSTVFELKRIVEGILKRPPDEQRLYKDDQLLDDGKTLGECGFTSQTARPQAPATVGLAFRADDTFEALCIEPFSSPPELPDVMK
Procedure: Protein expression and purification. Human proteins VHL (UniProt accession number: P40337), ElonginC (Q15369), and ElonginB (Q15370) were used for all protein expression. The short-isoform-containing VCB complex (V19CB) was expressed, purified and stored as described previously. For expression of the long-isoform-containing VCB complex (V30CB), N-terminally His6-tagged VHL (1–213), ElonginC (17–112) and ElonginB (1–104) were co-expressed in Escherichia coli BL21(DE3) at 20 °C for 18 h using 0.5 mM isopropyl β-D-1-thiogalactopyranoside (IPTG). E. coli cells were resuspended in binding buffer (50 mM HEPES, pH 8.0, 500 mM NaCl, 10 mM imidazole and 5 mM β-mercaptoethanol), lysed using a pressure cell homogenizer (Stansted Fluid Power), and lysate clarified by centrifugation. The supernatant was loaded onto a HisTrap FF affinity column (GE Healthcare) equilibrated with binding buffer, and bound protein was eluted using an imidazole gradient. […]
Size-exclusion chromatography (SEC). […] The oligomeric state of the VCB complex in solution was analyzed by gel filtration in a buffer containing 20 mM Bis-Tris (pH 7), 150 mM NaCl and 1 mM 1,4-dithiothreitol (DTT) using a Superdex 200 Increase 10/300 GL column (GE Healthcare) calibrated with globular proteins of known molecular weight (GE Healthcare, 28-4038-41/42). […] Peak elution was monitored using ultraviolet absorbance at 280 nm.

| SMILES | protein levels of HIF-1α relative to DMSO (HIF-1α) | luciferase activity relative to DMSO control [1] | luciferase activity relative to DMSO control [2] | complex formation in SEC with V30CB (V30CB) |
| --- | --- | --- | --- | --- |
| Cc1ncsc1-c1ccc(CNC(=O)[C@@H]2C[C@@H](O)CN2C(=O)[C@@H](NC(=O)COCCOCCOCCOCC(=O)N[C@H](C(=O)N2C[C@H](O)C[C@H]2C(=O)NCc2ccc(-c3scnc3C)cc2)C(C)(C)C)C(C)(C)C)cc1 [CM09, N ^1 ,N ^14-bis((S)-1-((2S,4R)-4-hydroxy-2-((4-(4-methylthiazol-5-yl)benzyl)carbamoyl)pyrrolidin-1-yl)-3,3-dimethyl-1-oxobutan-2-yl)-3,6,9,12-tetraoxatetradecanediamide] | small decrease |  |  |  |
| Cc1ncsc1-c1ccc(CNC(=O)[C@@H]2C[C@@H](O)CN2C(=O)[C@@H](NC(=O)COCCOCCOCCOCCOCCOCC(=O)N[C@H](C(=O)N2C[C@H](O)C[C@H]2C(=O)NCc2ccc(-c3scnc3C)cc2)C(C)(C)C)C(C)(C)C)cc1 [CM11, N ^1 ,N ^20-bis((S)-1-((2S,4R)-4-hydroxy-2-((4-(4-methylthiazol-5-yl)benzyl)carbamoyl)pyrrolidin-1-yl)-3,3-dimethyl-1-oxobutan-2-yl)-3,6,9,12,15,18-hexaoxaicosanediamide] |  | no increase | no increase | Formation of a 2:1 complex |
